≈ marks a conversion by molar mass, not a printed value.
Columns and labels:
Format in all cases: cell-based, Staphylococcus aureus
Staph aureus 1095 MRSA = experiment: MIC, microtiter broth dilution (CLSI M7-A7), Assay 1, Table 12 column A, no serum; conditions: Staphylococcus aureus, MRSA, Assay 1, no serum
How it was run: (§1)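 Testing followed the CLSI M7-A7 dilution standard in microtiter trays, with serum conditions using Mueller-Hinton Broth plus 50% pooled inactivated human serum. Values are the lowest concentrations with no macroscopically visible growth.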

Staph aureus 1146 [1] = experiment: MIC, microtiter broth dilution (CLSI M7-A7), Assay 1, Table 12 column B, no serum; conditions: Staphylococcus aureus, 1146, Staph aureus 1146, Assay 1, no serum
How it was run: as §1

Staph aureus 1146 [2] = experiment: MIC in Mueller-Hinton Broth with 50% pooled inactivated human serum, Assay 1, Table 12; conditions: Staphylococcus aureus, 1146, Staph aureus 1146, Assay 1, 50% human serum; read-out: MIC, column C
How it was run: as §1

Staph aureus 2811 = experiment: MIC, microtiter broth dilution (CLSI M7-A7), Assay 1, Table 12 column D, no serum; conditions: Staphylococcus aureus, 2811, Staph aureus 2811, Assay 1, no serum
How it was run: as §1

Staph aureus 2812 = experiment: MIC, microtiter broth dilution (CLSI M7-A7), Assay 1, Table 12 column E, no serum; conditions: Staphylococcus aureus, 2812, Staph aureus 2812, Assay 1, no serum
How it was run: as §1

SMILES	MIC (Staph aureus 1095 MRSA) [µg/mL]	MIC (Staph aureus 1146 [1]) [µg/mL]	MIC (Staph aureus 1146 [2]) [µg/mL]	MIC (Staph aureus 2811) [µg/mL]	MIC (Staph aureus 2812) [µg/mL]
COc1ccc2nccc(C(O)CC[C@@H]3CCN(C4CN(C5CCOCC5)C4)C[C@@H]3C(=O)O)c2c1 (stereo partly drawn) [Example 128, (3R,4R)-4-[3-hydroxy-3-(6-methoxyquinolin-4-yl)propyl]-1-[1-(tetrahydro-2H-pyran-4-yl)azetidin-3-yl] piperidine-3-carboxylic acid]	> 64	> 64	> 64	> 64	> 64
COc1ccc2nccc(C(O)CC[C@@H]3CCN(C4CN(C5CCCC5)C4)C[C@@H]3C(=O)O)c2c1 (stereo partly drawn) [Example 132, (3R,4R)-1-(1-cyclopentylazetidin-3-yl)-4-[3-hydroxy-3-(6-methoxyquinolin-4-yl)propyl]piperidine-3-carboxylic acid]	> 64	> 64	> 64	> 64	> 64
COc1ccc2nccc([C@@H](O)CC[C@@H]3CCN(C4CC(c5cc(C)ccc5F)C4)C[C@@H]3C(=O)O)c2c1 (stereo partly drawn) [Example 61, (3R,4R)-1-[3-(2-fluoro-5-methylphenyl)cyclobutyl]-4-[(3S)-3-hydroxy-3-(6-methoxyquinolin-4-yl)propyl]piperidine-3-carboxylic acid]	0.125 (≈ 0.247 µM)	≤ 0.0625	2 (≈ 3.95 µM)	≤ 0.0625	≤ 0.0625
COc1ccc2nccc(C(O)CC[C@@H]3CCN(C4CC(c5nc(C)no5)C4)C[C@@H]3C(=O)O)c2c1 (stereo partly drawn) [Example 102, (3R,4R)-4-[3-hydroxy-3-(6-methoxyquinolin-4-yl)propyl]-1-[3-(3-methyl-1,2,4-oxadiazol-5-yl)cyclobutyl]piperidine-3-carboxylic acid]	16 (≈ 33.3 µM)	16 (≈ 33.3 µM)	64 (≈ 133 µM)	8 (≈ 16.6 µM)	16 (≈ 33.3 µM)
O=C(O)[C@H]1CN(C2CC(c3c(F)cccc3F)C2)CC[C@H]1CCC(O)c1c(F)cnc2ccc(O)nc12 (stereo partly drawn) [Example 201, (3R,4R)-1-[3-(2,6-difluorophenyl)cyclobutyl]-4-[3-(3-fluoro-6-hydroxy-1,5-naphthyridin-4-yl)-3-hydroxypropyl]piperidine-3-carboxylic acid]	16 (≈ 31 µM)	2 (≈ 3.88 µM)	8 (≈ 15.5 µM)	2 (≈ 3.88 µM)	4 (≈ 7.76 µM)

Further lines, results first:

MIC (Staph aureus 1095 MRSA) [µg/mL]	MIC (Staph aureus 1146 [1]) [µg/mL]	MIC (Staph aureus 1146 [2]) [µg/mL]	MIC (Staph aureus 2811) [µg/mL]	MIC (Staph aureus 2812) [µg/mL]	SMILES
0.5 (≈ 1.01 µM)	< 0.0625	4 (≈ 8.08 µM)	< 0.0625	< 0.0625	COc1ccc2ncc(Cl)c(C(O)CCC3(C(=O)O)CCN(C4CC(c5ccccc5)C4)C3)c2c1 (stereo not drawn) [Example 175, 3-[3-(3-chloro-6-methoxyquinolin-4-yl)-3-hydroxypropyl]-1-(3-phenylcyclobutyl)pyrrolidine-3-carboxylic acid]
0.125 (≈ 0.243 µM)	< 0.0625	> 64	< 0.0625	< 0.0625	COc1ccc2ncc(Cl)c(CCCC3(C(=O)O)CCN(C[C@@H]4C[C@H]4c4cc(F)ccc4F)C3)c2c1 (stereo partly drawn) [Example 198, 3-[3-(3-chloro-6-methoxyquinolin-4-yl)propyl]-1-{[(1R,2R)-2-(2,5-difluorophenyl)cyclopropyl]methyl} pyrrolidine-3-carboxylic acid]
0.5 (≈ 0.982 µM)	0.25 (≈ 0.491 µM)	4 (≈ 7.86 µM)	0.25 (≈ 0.491 µM)	0.25 (≈ 0.491 µM)	COc1ccc2nccc(C(O)CC[C@@H]3CCN(C4CC(c5cccc(Cl)c5)C4)C[C@@H]3C(=O)O)c2c1 (stereo partly drawn) [Example 29, (3R,4R)-1-[3-(3-chlorophenyl)cyclobutyl]-4-[3-hydroxy-3-(6-methoxyquinolin-4-yl)propyl] piperidine-3-carboxylic acid]
0.125 (≈ 0.235 µM)	< 0.0625	4 (≈ 7.53 µM)	< 0.0625	< 0.0625	COc1ccc2ncc(Cl)c(C(O)CCC3(C(=O)O)CCN(C4CC(c5c(F)cccc5F)C4)C3)c2c1 (stereo not drawn) [Example 176, 3-[3-(3-chloro-6-methoxyquinolin-4-yl)-3-hydroxypropyl]-1-[3-(2,6-difluorophenyl)cyclobutyl] pyrrolidine-3-carboxylic acid]

Reference: patent US20080280879A1, “SUBSTITUTED HETEROCYCLIC DERIVATIVES AND THEIR PHARMACEUTICAL USE AND COMPOSITIONS” (priority 2007, published 2008)
